Source: ChEMBL document CHEMBL4507299, “Data for DCP probe PF-04554878” (2021)

Legend:
[1] = tested on: Tyrosine-protein kinase ABL1 (Homo sapiens), P00519 [Q252H]
[2] = molecular target: Activin receptor type-1-like (Homo sapiens) (UniProt P37023)
[3] = molecular target: Calcium/calmodulin-dependent protein kinase type 1G (Homo sapiens) (UniProt Q96NX5)
[4] = molecular target: Calcium/calmodulin-dependent protein kinase kinase 1 (Homo sapiens) (UniProt Q8N5S9)
[5] = molecular target: Cyclin-dependent kinase 4 (Homo sapiens) (UniProt P11802)
[6] = molecular target: Cyclin-dependent kinase 5 (Homo sapiens) (UniProt Q00535)
[7] = molecular target: Cyclin-dependent kinase 8 (Homo sapiens) (UniProt P49336)
[8] = molecular target: Cyclin-dependent kinase-like 2 (Homo sapiens) (UniProt Q92772)
[9] = molecular target: Dual specificity protein kinase CLK2 (Homo sapiens) (UniProt P49760)
[10] = molecular target: Dual specificity protein kinase CLK3 (Homo sapiens) (UniProt P49761)
[11] = molecular target: Casein kinase I isoform gamma-3 (Homo sapiens) (UniProt Q9Y6M4)
[12] = molecular target: Death-associated protein kinase 1 (Homo sapiens) (UniProt P53355)
[13] = molecular target: Serine/threonine-protein kinase DCLK3 (Homo sapiens) (UniProt Q9C098)
[14] = molecular target: Myotonin-protein kinase (Homo sapiens) (UniProt Q09013)
[15] = tested on: Epidermal growth factor receptor (Homo sapiens), P00533 [UNDEFINED MUTATION]
[16] = molecular target: Mitogen-activated protein kinase 3 (Homo sapiens) (UniProt P27361)
[17] = molecular target: Mitogen-activated protein kinase 15 (Homo sapiens) (UniProt Q8TD08)
[18] = molecular target: Tyrosine-protein kinase Fgr (Homo sapiens) (UniProt P09769)
[19] = molecular target: Serine/threonine-protein kinase ICK (Homo sapiens) (UniProt Q9UPZ9)
[20] = molecular target: Mitogen-activated protein kinase 10 (Homo sapiens) (UniProt P53779)
[21] = molecular target: Mast/stem cell growth factor receptor Kit (Homo sapiens) (UniProt P10721)
[22] = tested on: Mast/stem cell growth factor receptor Kit (Homo sapiens), P10721 [D816V]
[23] = molecular target: Tyrosine-protein kinase Lyn (Homo sapiens, UniProt P07948)
[24] = molecular target: Mitogen-activated protein kinase kinase kinase 13 (Homo sapiens) (UniProt O43283)
[25] = molecular target: Mitogen-activated protein kinase kinase kinase 3 (Homo sapiens) (UniProt Q99759)
[26] = molecular target: MAP kinase-activated protein kinase 2 (Homo sapiens) (UniProt P49137)
[27] = molecular target: Hepatocyte growth factor receptor (Homo sapiens) (UniProt P08581)
[28] = molecular target: Myosin light chain kinase (Homo sapiens) (UniProt Q32MK0)
[29] = molecular target: Serine/threonine-protein kinase Nek11 (Homo sapiens) (UniProt Q8NG66)
[30] = molecular target: Serine/threonine-protein kinase Nek7 (Homo sapiens) (UniProt Q8TDX7)
[31] = molecular target: Cyclin-dependent kinase 16 (Homo sapiens) (UniProt Q00536)
[32] = molecular target: Serine/threonine-protein kinase RIO1 (Homo sapiens) (UniProt Q9BRS2)
[33] = molecular target: Receptor-interacting serine/threonine-protein kinase 4 (Homo sapiens) (UniProt P57078)
[34] = molecular target: Serine/threonine-protein kinase SBK1 (Homo sapiens) (UniProt Q52WX2)
[35] = molecular target: Serine/threonine-protein kinase SIK2 (Homo sapiens) (UniProt Q9H0K1)
[36] = molecular target: STE20-like serine/threonine-protein kinase (Homo sapiens) (UniProt Q9H2G2)
[37] = molecular target: Serine/threonine-protein kinase 33 (Homo sapiens) (UniProt Q9BYT3)
[38] = molecular target: Mitogen-activated protein kinase kinase kinase 7 (Homo sapiens) (UniProt O43318)
[39] = molecular target: Serine/threonine-protein kinase tousled-like 1 (Homo sapiens) (UniProt Q9UKI8)
[40] = molecular target: Testis-specific serine/threonine-protein kinase 1 (Homo sapiens) (UniProt Q9BXA7)
[41] = molecular target: Non-receptor tyrosine-protein kinase TYK2 (Homo sapiens) (UniProt P29597)
[42] = molecular target: Serine/threonine-protein kinase ULK3 (Homo sapiens) (UniProt Q6PHR2)
[43] = molecular target: 5-hydroxytryptamine receptor 2A (Homo sapiens) (UniProt P28223); conditions: Compound concentration 10.0 uM
[44] = molecular target: 5-hydroxytryptamine receptor 2C (Homo sapiens) (UniProt P28335); conditions: Compound concentration 10.0 uM
[45] = molecular target: 5-hydroxytryptamine receptor 7 (Homo sapiens) (UniProt P34969); conditions: Compound concentration 10.0 uM
[46] = molecular target: Sodium-dependent serotonin transporter (Homo sapiens) (UniProt P31645); conditions: Compound concentration 10.0 uM
[47] = Compound concentration 100.0 nM
[48] = Compound concentration 1000.0 nM

Casein kinase I isoform gamma-3 (Homo sapiens), sequence (Q9Y6M4 whole entry, looked up, canonical isoform): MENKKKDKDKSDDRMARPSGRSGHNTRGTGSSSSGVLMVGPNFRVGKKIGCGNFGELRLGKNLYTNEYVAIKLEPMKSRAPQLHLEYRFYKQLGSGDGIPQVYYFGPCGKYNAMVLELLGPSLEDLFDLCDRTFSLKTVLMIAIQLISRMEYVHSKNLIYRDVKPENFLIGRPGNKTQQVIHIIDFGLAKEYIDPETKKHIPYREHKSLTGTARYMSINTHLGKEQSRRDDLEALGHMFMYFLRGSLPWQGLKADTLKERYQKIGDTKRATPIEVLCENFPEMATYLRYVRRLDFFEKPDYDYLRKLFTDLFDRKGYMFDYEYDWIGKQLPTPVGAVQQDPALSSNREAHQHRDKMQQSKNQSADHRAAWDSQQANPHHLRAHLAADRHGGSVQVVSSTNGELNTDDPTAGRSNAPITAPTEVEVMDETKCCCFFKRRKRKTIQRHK
Cyclin-dependent kinase 4 (Homo sapiens), sequence (P11802 whole entry): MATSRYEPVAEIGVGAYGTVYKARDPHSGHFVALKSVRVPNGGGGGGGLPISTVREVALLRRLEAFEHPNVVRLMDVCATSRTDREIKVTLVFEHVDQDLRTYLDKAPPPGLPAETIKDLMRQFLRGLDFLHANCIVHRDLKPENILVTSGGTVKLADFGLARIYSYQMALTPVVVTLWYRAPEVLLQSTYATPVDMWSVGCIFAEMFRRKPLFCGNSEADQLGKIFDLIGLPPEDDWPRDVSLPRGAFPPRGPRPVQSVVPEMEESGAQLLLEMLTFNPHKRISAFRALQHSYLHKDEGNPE
Dual specificity protein kinase CLK2 (Homo sapiens), sequence (P49760 whole entry, looked up): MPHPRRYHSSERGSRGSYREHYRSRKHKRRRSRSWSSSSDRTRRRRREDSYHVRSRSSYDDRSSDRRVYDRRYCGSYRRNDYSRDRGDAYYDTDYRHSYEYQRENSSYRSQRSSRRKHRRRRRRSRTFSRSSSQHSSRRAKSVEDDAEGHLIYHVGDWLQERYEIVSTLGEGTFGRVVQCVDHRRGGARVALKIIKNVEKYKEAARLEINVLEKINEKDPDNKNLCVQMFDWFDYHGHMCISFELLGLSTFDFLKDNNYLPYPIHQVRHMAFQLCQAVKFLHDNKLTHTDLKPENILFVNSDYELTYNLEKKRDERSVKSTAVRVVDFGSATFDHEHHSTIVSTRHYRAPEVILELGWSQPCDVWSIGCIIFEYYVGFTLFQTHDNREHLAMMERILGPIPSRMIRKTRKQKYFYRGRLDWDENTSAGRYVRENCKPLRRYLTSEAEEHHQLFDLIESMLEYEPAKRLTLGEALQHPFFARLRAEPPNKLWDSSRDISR
Cyclin-dependent kinase-like 2 (Homo sapiens), sequence (Q92772 whole entry): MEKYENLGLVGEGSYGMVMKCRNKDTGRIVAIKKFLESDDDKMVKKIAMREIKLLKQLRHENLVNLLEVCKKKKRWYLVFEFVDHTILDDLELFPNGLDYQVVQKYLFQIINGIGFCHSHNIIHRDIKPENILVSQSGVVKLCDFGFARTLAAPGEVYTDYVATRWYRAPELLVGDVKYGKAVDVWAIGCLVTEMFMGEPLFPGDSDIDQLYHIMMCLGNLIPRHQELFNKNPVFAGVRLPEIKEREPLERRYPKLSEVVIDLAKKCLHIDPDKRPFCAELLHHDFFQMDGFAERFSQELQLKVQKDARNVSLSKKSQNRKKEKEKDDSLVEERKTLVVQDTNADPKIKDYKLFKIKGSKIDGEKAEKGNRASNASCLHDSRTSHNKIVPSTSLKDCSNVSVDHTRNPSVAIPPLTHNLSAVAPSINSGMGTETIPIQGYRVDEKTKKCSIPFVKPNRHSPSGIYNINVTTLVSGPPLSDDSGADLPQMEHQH
Myotonin-protein kinase (Homo sapiens), sequence (Q09013 whole entry): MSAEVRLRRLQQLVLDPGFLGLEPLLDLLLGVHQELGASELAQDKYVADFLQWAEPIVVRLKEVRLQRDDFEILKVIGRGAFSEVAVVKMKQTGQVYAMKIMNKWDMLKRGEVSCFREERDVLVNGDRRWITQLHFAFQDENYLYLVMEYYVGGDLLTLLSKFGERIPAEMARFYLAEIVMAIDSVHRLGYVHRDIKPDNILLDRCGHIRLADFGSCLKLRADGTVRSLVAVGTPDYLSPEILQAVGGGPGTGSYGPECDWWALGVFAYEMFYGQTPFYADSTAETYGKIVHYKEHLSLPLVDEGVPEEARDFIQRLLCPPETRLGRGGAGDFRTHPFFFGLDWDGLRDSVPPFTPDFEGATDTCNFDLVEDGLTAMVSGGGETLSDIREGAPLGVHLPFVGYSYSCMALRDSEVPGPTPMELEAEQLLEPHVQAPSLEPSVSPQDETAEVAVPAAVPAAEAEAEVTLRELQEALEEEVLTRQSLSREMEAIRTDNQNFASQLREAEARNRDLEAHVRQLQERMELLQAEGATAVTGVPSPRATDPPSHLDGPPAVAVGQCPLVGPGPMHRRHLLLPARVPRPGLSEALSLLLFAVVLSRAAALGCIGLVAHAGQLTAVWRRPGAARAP
Myosin light chain kinase (Homo sapiens), sequence (Q32MK0 whole entry): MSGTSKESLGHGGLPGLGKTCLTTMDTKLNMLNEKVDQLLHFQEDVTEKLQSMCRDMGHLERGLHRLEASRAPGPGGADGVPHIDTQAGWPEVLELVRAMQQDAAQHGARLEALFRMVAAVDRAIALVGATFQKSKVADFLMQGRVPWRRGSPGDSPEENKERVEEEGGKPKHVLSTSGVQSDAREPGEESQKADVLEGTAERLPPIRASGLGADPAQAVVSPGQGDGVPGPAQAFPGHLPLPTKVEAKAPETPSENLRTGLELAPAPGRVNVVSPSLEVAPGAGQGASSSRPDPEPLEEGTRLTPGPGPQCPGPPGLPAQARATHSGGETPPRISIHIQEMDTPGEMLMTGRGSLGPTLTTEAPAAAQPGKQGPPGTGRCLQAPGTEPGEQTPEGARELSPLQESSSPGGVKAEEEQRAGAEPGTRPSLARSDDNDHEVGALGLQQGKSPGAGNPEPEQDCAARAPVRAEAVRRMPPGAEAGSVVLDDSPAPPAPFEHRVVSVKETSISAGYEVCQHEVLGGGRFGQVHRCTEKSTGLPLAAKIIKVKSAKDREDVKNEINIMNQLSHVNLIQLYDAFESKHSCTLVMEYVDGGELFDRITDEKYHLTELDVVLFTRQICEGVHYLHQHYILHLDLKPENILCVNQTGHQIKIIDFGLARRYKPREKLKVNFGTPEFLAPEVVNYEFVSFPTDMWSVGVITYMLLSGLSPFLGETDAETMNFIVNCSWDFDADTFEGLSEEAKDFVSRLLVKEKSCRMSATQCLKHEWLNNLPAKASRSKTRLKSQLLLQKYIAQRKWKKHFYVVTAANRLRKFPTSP
Serine/threonine-protein kinase tousled-like 1 (Homo sapiens), sequence (Q9UKI8 whole entry): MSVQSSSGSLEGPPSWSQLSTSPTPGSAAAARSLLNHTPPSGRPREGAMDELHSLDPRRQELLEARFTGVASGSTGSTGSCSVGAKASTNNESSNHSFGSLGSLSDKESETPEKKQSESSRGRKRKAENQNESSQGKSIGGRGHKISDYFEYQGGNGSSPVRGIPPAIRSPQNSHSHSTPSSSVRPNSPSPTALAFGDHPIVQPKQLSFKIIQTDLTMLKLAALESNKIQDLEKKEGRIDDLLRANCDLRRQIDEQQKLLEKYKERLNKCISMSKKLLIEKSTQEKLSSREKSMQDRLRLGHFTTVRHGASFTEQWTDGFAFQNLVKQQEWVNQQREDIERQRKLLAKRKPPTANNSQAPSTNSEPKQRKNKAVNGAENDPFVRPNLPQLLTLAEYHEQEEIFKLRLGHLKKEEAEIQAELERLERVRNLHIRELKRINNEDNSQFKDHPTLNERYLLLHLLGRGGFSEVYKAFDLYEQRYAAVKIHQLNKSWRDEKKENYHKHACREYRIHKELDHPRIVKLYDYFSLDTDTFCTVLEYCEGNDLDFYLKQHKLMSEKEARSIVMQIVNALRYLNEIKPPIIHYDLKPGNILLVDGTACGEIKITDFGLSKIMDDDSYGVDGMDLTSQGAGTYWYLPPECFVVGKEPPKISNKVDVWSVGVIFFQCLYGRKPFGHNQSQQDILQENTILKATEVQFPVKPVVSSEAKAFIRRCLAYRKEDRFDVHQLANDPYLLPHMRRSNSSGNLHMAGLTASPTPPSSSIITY
Serine/threonine-protein kinase RIO1 (Homo sapiens), sequence (Q9BRS2 whole entry): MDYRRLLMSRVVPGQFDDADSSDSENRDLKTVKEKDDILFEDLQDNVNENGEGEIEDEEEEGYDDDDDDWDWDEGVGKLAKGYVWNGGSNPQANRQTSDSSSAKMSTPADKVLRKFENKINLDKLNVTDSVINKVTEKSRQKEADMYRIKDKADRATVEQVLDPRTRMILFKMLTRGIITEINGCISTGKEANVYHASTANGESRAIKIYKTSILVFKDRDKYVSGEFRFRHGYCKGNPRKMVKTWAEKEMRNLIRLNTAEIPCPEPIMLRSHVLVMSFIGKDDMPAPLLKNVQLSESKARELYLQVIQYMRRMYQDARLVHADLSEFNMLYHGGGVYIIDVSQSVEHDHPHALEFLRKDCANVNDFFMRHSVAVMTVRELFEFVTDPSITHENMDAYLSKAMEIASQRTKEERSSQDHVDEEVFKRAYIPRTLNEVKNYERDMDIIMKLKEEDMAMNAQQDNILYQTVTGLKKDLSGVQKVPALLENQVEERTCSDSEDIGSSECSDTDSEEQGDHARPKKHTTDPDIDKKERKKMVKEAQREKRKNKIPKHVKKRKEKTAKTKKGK
Mitogen-activated protein kinase 3 (Homo sapiens), sequence (P27361 whole entry): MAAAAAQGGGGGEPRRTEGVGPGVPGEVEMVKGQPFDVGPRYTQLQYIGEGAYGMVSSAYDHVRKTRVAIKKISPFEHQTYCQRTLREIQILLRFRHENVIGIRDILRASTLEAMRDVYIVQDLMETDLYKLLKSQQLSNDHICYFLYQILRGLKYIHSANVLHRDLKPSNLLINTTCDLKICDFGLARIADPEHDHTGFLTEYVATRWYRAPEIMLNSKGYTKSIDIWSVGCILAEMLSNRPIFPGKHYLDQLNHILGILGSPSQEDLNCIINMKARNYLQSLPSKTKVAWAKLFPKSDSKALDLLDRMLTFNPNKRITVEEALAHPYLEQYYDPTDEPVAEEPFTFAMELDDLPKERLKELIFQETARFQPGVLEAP

CNC(=O)c1ccc(Nc2ncc(C(F)(F)F)c(NCc3nccnc3N(C)S(C)(=O)=O)n2)cc1 [DEFACTINIB]
active: residual activity [9, 47] 0% | residual activity [14, 47] 16% | residual activity [17, 47] 40% | residual activity [41, 47] 27%
inactive: residual activity [1, 47] 100% | residual activity [2, 47] 100% | residual activity [3, 47] 89% | residual activity [4, 47] 75% | residual activity [5, 47] 100% | residual activity [6, 47] 81% | residual activity [7, 47] 50% | residual activity [8, 47] 79% | residual activity [10, 47] 97% | residual activity [11, 47] 100% | residual activity [12, 47] 82% | residual activity [13, 47] 67% | residual activity [15, 47] 91% | residual activity [16, 47] 86% | residual activity [18, 47] 81% | residual activity [19, 47] 68% | residual activity [20, 47] 100% | residual activity [21, 47] 84% | residual activity [22, 47] 80% | residual activity [23, 47] 85% | residual activity [24, 47] 98% | residual activity [25, 47] 81% | residual activity [26, 47] 100% | residual activity [27, 47] 66% | residual activity [28, 47] 100% | residual activity [29, 47] 89% | residual activity [30, 47] 70% | residual activity [31, 47] 99% | residual activity [32, 47] 100% | residual activity [33, 47] 89% | residual activity [34, 47] 67% | residual activity [35, 47] 100% | residual activity [36, 47] 53% | residual activity [37, 47] 68% | residual activity [38, 47] 57% | residual activity [39, 47] 73% | residual activity [40, 47] 64% | residual activity [42, 47] 75% | inhibition [43] 0.93% | inhibition [44] 16.9% | inhibition [45] 5.31% | inhibition [46] 2.45%

CN(c1ccnc(CNc2nc(Nc3ccc4c(c3)CC(=O)N4)ncc2C(F)(F)F)n1)S(C)(=O)=O [PF-00911705]
inactive: residual activity [2, 48] 100% | residual activity [3, 48] 95% | residual activity [4, 48] 90% | residual activity [5, 48] 100% | residual activity [6, 48] 79% | residual activity [7, 48] 97% | residual activity [8, 48] 84% | residual activity [11, 48] 100% | residual activity [16, 48] 96% | residual activity [18, 48] 58% | residual activity [19, 48] 100% | residual activity [20, 48] 56% | residual activity [21, 48] 85% | residual activity [23, 48] 80% | residual activity [26, 48] 100% | residual activity [28, 48] 100% | residual activity [29, 48] 100% | residual activity [30, 48] 68% | residual activity [31, 48] 82% | residual activity [39, 48] 79% | residual activity [40, 48] 56% | inhibition [43] 4.75% | inhibition [44] 8.11% | inhibition [45] -4.55% | inhibition [46] 33.5%
active: residual activity [1, 48] 49% | residual activity [9, 48] 0% | residual activity [10, 48] 12% | residual activity [12, 48] 15% | residual activity [13, 48] 43% | residual activity [14, 48] 23% | residual activity [15, 48] 44% | residual activity [17, 48] 4.8% | residual activity [22, 48] 28% | residual activity [24, 48] 0% | residual activity [25, 48] 44% | residual activity [27, 48] 14% | residual activity [32, 48] 9.7% | residual activity [33, 48] 6% | residual activity [34, 48] 34% | residual activity [35, 48] 41% | residual activity [36, 48] 41% | residual activity [37, 48] 15% | residual activity [38, 48] 48% | residual activity [41, 48] 27% | residual activity [42, 48] 25%
